Laboratory results published in PubChem BioAssay (NCI).
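Values below derive from 48-hour exposures of cells grown in 96-well plates, with endpoints linearly interpolated between the two concentrations bracketing the appropriate inhibition level. The concentration for 50% growth inhibition is given as GI50. TGI is the concentration that stops growth completely.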

Tests used:
Assay in all cases: growth of human tumour cells (NCI), 48 h; in the data active means GI50 below about 0.43 µM; inactive means the rest
SK-MEL-28 melanoma = tested on: SK-MEL-28 melanoma
SK-MEL-5 melanoma = tested on: SK-MEL-5 melanoma
COLO 205 colon = tested on: COLO 205 colon
A498 renal = tested on: A498 renal
NCI-H460 lung = tested on: NCI-H460 lung
SK-OV-3 ovarian = tested on: SK-OV-3 ovarian
HT29 colon = tested on: HT29 colon
MDA-N = tested on: MDA-N
UACC-62 melanoma = tested on: UACC-62 melanoma
MALME-3M melanoma = tested on: MALME-3M melanoma
SN12C renal = tested on: SN12C renal
A549 NSCLC = tested on: A549 NSCLC
CCRF-CEM leukemia = tested on: CCRF-CEM leukemia
LOX IMVI melanoma = tested on: LOX IMVI melanoma
MDA-MB-435 = tested on: MDA-MB-435
PC-3 prostate = tested on: PC-3 prostate
SNB-19 CNS = tested on: SNB-19 CNS
HS 578T breast = tested on: HS 578T breast
CAKI-1 renal = tested on: CAKI-1 renal
U251 CNS = tested on: U251 CNS
RXF 393 renal = tested on: RXF 393 renal
DU-145 prostate = tested on: DU-145 prostate
SF-539 CNS = tested on: SF-539 CNS
T-47D breast = tested on: T-47D breast
SNB-75 CNS = tested on: SNB-75 CNS
786-0 renal = tested on: 786-0 renal
SF-295 CNS = tested on: SF-295 CNS
K-562 leukemia = tested on: K-562 leukemia
M14 melanoma = tested on: M14 melanoma
HCC-2998 colon = tested on: HCC-2998 colon
EKVX NSCLC = tested on: EKVX NSCLC
SK-MEL-2 melanoma = tested on: SK-MEL-2 melanoma
NCI-H23 lung = tested on: NCI-H23 lung
UACC-257 melanoma = tested on: UACC-257 melanoma
MCF7 breast = tested on: MCF7 breast
OVCAR-8 ovarian = tested on: OVCAR-8 ovarian
HL-60(TB) leukemia = tested on: HL-60(TB) leukemia
HOP-92 NSCLC = tested on: HOP-92 NSCLC
HOP-62 NSCLC = tested on: HOP-62 NSCLC
MDA-MB-231 breast = tested on: MDA-MB-231 breast
SR leukemia = tested on: SR leukemia
NCI-H226 lung = tested on: NCI-H226 lung
ACHN renal = tested on: ACHN renal
RPMI-8226 leukemia = tested on: RPMI-8226 leukemia
MOLT-4 leukemia = tested on: MOLT-4 leukemia
HCT-15 colon = tested on: HCT-15 colon
HCT-116 colon = tested on: HCT-116 colon
NCI-H522 lung = tested on: NCI-H522 lung
NCI/ADR-RES ovarian = tested on: NCI/ADR-RES ovarian
SW-620 colon = tested on: SW-620 colon
IGROV1 ovarian = tested on: IGROV1 ovarian
KM12 colon = tested on: KM12 colon
OVCAR-4 ovarian = tested on: OVCAR-4 ovarian
TK-10 renal = tested on: TK-10 renal
SF-268 CNS = tested on: SF-268 CNS
OVCAR-5 ovarian = tested on: OVCAR-5 ovarian
OVCAR-3 ovarian = tested on: OVCAR-3 ovarian
UO-31 renal = tested on: UO-31 renal
BT-549 breast = tested on: BT-549 breast

CN1CCC(O)(OC(=O)C(c2ccccc2)C2(O)CCCC2)CC1 (stereo not drawn)
> 100 µM: TGI (SK-MEL-28 melanoma) | TGI (SK-MEL-5 melanoma) | TGI (COLO 205 colon) | TGI (A498 renal) | TGI (NCI-H460 lung) | TGI (SK-OV-3 ovarian) | TGI (HT29 colon) | TGI (MDA-N) | TGI (UACC-62 melanoma) | TGI (MALME-3M melanoma) | TGI (SN12C renal) | TGI (A549 NSCLC) | TGI (CCRF-CEM leukemia) | TGI (LOX IMVI melanoma) | TGI (MDA-MB-435) | TGI (PC-3 prostate) | TGI (SNB-19 CNS) | TGI (HS 578T breast) | TGI (CAKI-1 renal) | TGI (U251 CNS) | TGI (RXF 393 renal) | TGI (DU-145 prostate) | TGI (SF-539 CNS) | TGI (T-47D breast) | TGI (SNB-75 CNS) | TGI (786-0 renal) | TGI (SF-295 CNS) | TGI (K-562 leukemia) | TGI (M14 melanoma) | TGI (HCC-2998 colon) | TGI (EKVX NSCLC) | TGI (SK-MEL-2 melanoma) | TGI (NCI-H23 lung) | TGI (UACC-257 melanoma) | TGI (MCF7 breast) | TGI (OVCAR-8 ovarian) | TGI (HL-60(TB) leukemia) | TGI (HOP-92 NSCLC) | TGI (HOP-62 NSCLC) | TGI (MDA-MB-231 breast) | TGI (SR leukemia) | TGI (NCI-H226 lung) | TGI (ACHN renal) | TGI (RPMI-8226 leukemia) | TGI (MOLT-4 leukemia) | TGI (HCT-15 colon) | TGI (HCT-116 colon) | TGI (NCI-H522 lung) | TGI (NCI/ADR-RES ovarian) | TGI (SW-620 colon) | TGI (IGROV1 ovarian) | TGI (KM12 colon) | TGI (OVCAR-4 ovarian) | TGI (TK-10 renal) | TGI (SF-268 CNS) | TGI (OVCAR-5 ovarian) | TGI (OVCAR-3 ovarian)

CC(=O)OC1C2CCC3CC2C2(SCCS2)C31 (stereo not drawn)
> 100 µM: TGI (SK-MEL-28 melanoma) | TGI (SK-MEL-5 melanoma) | TGI (COLO 205 colon) | TGI (A498 renal) | TGI (NCI-H460 lung) | TGI (SK-OV-3 ovarian) | TGI (HT29 colon) | TGI (MDA-N) | TGI (UACC-62 melanoma) | TGI (MALME-3M melanoma) | TGI (SN12C renal) | TGI (A549 NSCLC) | TGI (LOX IMVI melanoma) | TGI (MDA-MB-435) | TGI (PC-3 prostate) | TGI (SNB-19 CNS) | TGI (HS 578T breast) | TGI (U251 CNS) | TGI (RXF 393 renal) | TGI (DU-145 prostate) | TGI (SF-539 CNS) | TGI (T-47D breast) | TGI (786-0 renal) | TGI (SF-295 CNS) | TGI (K-562 leukemia) | TGI (M14 melanoma) | TGI (HCC-2998 colon) | TGI (EKVX NSCLC) | TGI (SK-MEL-2 melanoma) | TGI (NCI-H23 lung) | TGI (UACC-257 melanoma) | TGI (MCF7 breast) | TGI (OVCAR-8 ovarian) | TGI (HL-60(TB) leukemia) | TGI (HOP-92 NSCLC) | TGI (HOP-62 NSCLC) | TGI (MDA-MB-231 breast) | TGI (SR leukemia) | TGI (NCI-H226 lung) | TGI (ACHN renal) | TGI (RPMI-8226 leukemia) | TGI (MOLT-4 leukemia) | TGI (HCT-15 colon) | TGI (HCT-116 colon) | TGI (NCI-H522 lung) | TGI (NCI/ADR-RES ovarian) | TGI (SW-620 colon) | TGI (IGROV1 ovarian) | TGI (KM12 colon) | TGI (UO-31 renal) | TGI (OVCAR-4 ovarian) | TGI (TK-10 renal) | TGI (SF-268 CNS) | TGI (OVCAR-5 ovarian) | TGI (OVCAR-3 ovarian)

CCN(CC)c1ccc(/C=N/N=C(N)N)cc1
20.7 µM: TGI (786-0 renal)
4.8 µM: TGI (NCI-H522 lung)
inactive: GI50 (SK-MEL-28 melanoma) 6.27 µM | GI50 (SK-MEL-5 melanoma) 3.16 µM | GI50 (COLO 205 colon) 1.79 µM | GI50 (A498 renal) 2.25 µM | GI50 (NCI-H460 lung) 3.57 µM | GI50 (SK-OV-3 ovarian) 3.47 µM | GI50 (HT29 colon) 3.24 µM | GI50 (UACC-62 melanoma) 4.23 µM | GI50 (MALME-3M melanoma) 4.45 µM | GI50 (SN12C renal) 4.88 µM | GI50 (A549 NSCLC) 4.99 µM | GI50 (CCRF-CEM leukemia) 3.5 µM | GI50 (LOX IMVI melanoma) 5.02 µM | GI50 (MDA-MB-435) 0.668 µM | GI50 (PC-3 prostate) 3.51 µM | GI50 (SNB-19 CNS) 3.57 µM | GI50 (HS 578T breast) 3.68 µM | GI50 (CAKI-1 renal) 6.73 µM | GI50 (U251 CNS) 5.49 µM | GI50 (RXF 393 renal) 2.85 µM | GI50 (DU-145 prostate) 4.3 µM | GI50 (SF-539 CNS) 5.06 µM | GI50 (T-47D breast) 3.76 µM | GI50 (SNB-75 CNS) 3.74 µM | GI50 (786-0 renal) 6.2 µM | GI50 (SF-295 CNS) 3.59 µM | GI50 (K-562 leukemia) 3.02 µM | GI50 (M14 melanoma) 4 µM | GI50 (HCC-2998 colon) 4.68 µM | GI50 (EKVX NSCLC) 7.59 µM | GI50 (SK-MEL-2 melanoma) 2.85 µM | GI50 (NCI-H23 lung) 4.59 µM | GI50 (UACC-257 melanoma) 5.2 µM | GI50 (MCF7 breast) 2.62 µM | GI50 (OVCAR-8 ovarian) 5.06 µM | GI50 (HL-60(TB) leukemia) 2.84 µM | GI50 (HOP-92 NSCLC) 2.27 µM | GI50 (HOP-62 NSCLC) 4.65 µM | GI50 (MDA-MB-231 breast) 10.9 µM | GI50 (SR leukemia) 2.03 µM | GI50 (NCI-H226 lung) 3.84 µM | GI50 (ACHN renal) 12.8 µM | GI50 (RPMI-8226 leukemia) 2.84 µM | GI50 (MOLT-4 leukemia) 4.95 µM | GI50 (HCT-15 colon) 4.76 µM | GI50 (HCT-116 colon) 4.85 µM | GI50 (NCI-H522 lung) 1.91 µM | GI50 (NCI/ADR-RES ovarian) 5.44 µM | GI50 (SW-620 colon) 3.08 µM | GI50 (IGROV1 ovarian) 8.11 µM | GI50 (KM12 colon) 3.47 µM | GI50 (UO-31 renal) 6.78 µM | GI50 (OVCAR-4 ovarian) 5.74 µM | GI50 (TK-10 renal) 7.87 µM | GI50 (SF-268 CNS) 5.43 µM | GI50 (OVCAR-5 ovarian) 17.1 µM | GI50 (OVCAR-3 ovarian) 2.21 µM | GI50 (BT-549 breast) 6.84 µM
18.5 µM: TGI (HCT-116 colon)
92.9 µM: TGI (PC-3 prostate)
22.8 µM: TGI (NCI-H226 lung)
50.6 µM: TGI (NCI-H23 lung)
7.95 µM: TGI (HL-60(TB) leukemia)
14 µM: TGI (SK-OV-3 ovarian)
30.5 µM: TGI (SF-539 CNS)
23.5 µM: TGI (OVCAR-8 ovarian)
20.3 µM: TGI (SK-MEL-28 melanoma)
3.51 µM: TGI (COLO 205 colon)
17 µM: TGI (M14 melanoma)
23.4 µM: TGI (U251 CNS)
26.5 µM: TGI (HS 578T breast)
13.3 µM: TGI (RPMI-8226 leukemia)
18.1 µM: TGI (UACC-62 melanoma)
28.2 µM: TGI (DU-145 prostate)
4.91 µM: TGI (OVCAR-3 ovarian)
55.1 µM: TGI (IGROV1 ovarian)
> 100 µM: TGI (A549 NSCLC) | TGI (CAKI-1 renal) | TGI (SNB-75 CNS) | TGI (OVCAR-5 ovarian)
64.8 µM: TGI (ACHN renal)
14.8 µM: TGI (MCF7 breast)
13.5 µM: TGI (HOP-92 NSCLC)
23.9 µM: TGI (UACC-257 melanoma)
13.6 µM: TGI (SW-620 colon)
19.9 µM: TGI (LOX IMVI melanoma)
21.9 µM: TGI (A498 renal)
10.8 µM: TGI (HT29 colon)
93.8 µM: TGI (EKVX NSCLC)
32.6 µM: TGI (MDA-MB-231 breast)
28.4 µM: TGI (TK-10 renal)
29.8 µM: TGI (NCI/ADR-RES ovarian)
13.4 µM: TGI (SK-MEL-5 melanoma)
17.3 µM: TGI (HCC-2998 colon)
15.1 µM: TGI (NCI-H460 lung)
67.7 µM: TGI (CCRF-CEM leukemia)
24.5 µM: TGI (T-47D breast)
33.9 µM: TGI (BT-549 breast)
11.7 µM: TGI (RXF 393 renal)
16.4 µM: TGI (K-562 leukemia) | TGI (KM12 colon)
18.7 µM: TGI (MALME-3M melanoma)
35.7 µM: TGI (MOLT-4 leukemia)
15 µM: TGI (SR leukemia)
38.9 µM: TGI (UO-31 renal)
21.3 µM: TGI (HOP-62 NSCLC)
15.8 µM: TGI (SF-295 CNS)
55.8 µM: TGI (HCT-15 colon)
3.04 µM: TGI (MDA-MB-435)
23.8 µM: TGI (SNB-19 CNS)
27.2 µM: TGI (SN12C renal)
82.5 µM: TGI (SF-268 CNS)
39.5 µM: TGI (OVCAR-4 ovarian)
8.33 µM: TGI (SK-MEL-2 melanoma)
